Results published in patent publication US9988430B2, “Stable GLP-1 based GLP-1/glucagon receptor co-agonists” (Novo Nordisk A/S, priority 2014, dated 2018).
*1 amine or outer side, *2 acyl side, *3 side chain or, on linkers, in order; H or OH if unused. Where a SMILES comes first, the peptide text is derived from it. Bridges are numbered along the chain shown (N, C = ends). Roman numbers before positions name the chains, in order. Side-chain parts run from the residue outwards. [ ]: non-standard residue; d: D form. The star is where a group is joined. C18 diacid = O=C(O)CCCCCCCCCCCCCCCCC(=O)*; γGlu = O=C(O)[C@H](CCC(=O)[*:2])N[*:1]; Desaminohistidyl = O=C(CCc1c[nH]cn1)*; Ac4c = NC1(C(=O)O)CCC1; AEEA = NCCOCCOCC(=O)O; Aib = CC(C)(N)C(=O)O

Tests used:
human GLP-1 receptor = biological target: T1, human GLP-1 receptor (Homo sapiens, UniProt P43220); experiment: Assay (I)(a): GLP-1 receptor potency, CRE luciferase reporter gene assay in BHK cells; format: cell-based; conditions: BHK cells expressing human GLP-1 receptor, read-out: EC50 GLP-1R
T1 construct: expressed in transfected cells; host or cells: membranes of BHK cells, parent line BHKTS13, clone FCW467-12A
Outline: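 BHK cells (clone FCW467-12A/KZ10-1), 5×10EE3/well, exposed 3 h at 37° C to compound at 1×10EE-13 to 1×10EE-6 M final in medium with 2% ovalbumin and 0.2% Pluronic F-68. Luciferase luminescence read; EC50 (pM) from four-parameter fit.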

[1] = Assay (V): chemical stability assessment by RP-UPLC; format: physicochemical; conditions: 14 days at 37° C. in phosphate buffer (pH 7.3)
Method: Assay (V): Chemical Stability Assessment
The purpose of this assay is to assess the chemical stability of the GLP-1 derivatives of the present invention in aqueous solutions.
Chemical stability of GLP-1 derivatives may be investigated by RP-UPLC separation and UV detection. Lyophilized samples are dissolved in a 8 mM Phosphate buffer pH 8.6, followed by adjustment to pH 7.3 using HCl to a final concentration of 333 μM. Samples are incubated for 14 days at 5° C. and 37° C. followed by RP-UPLC analysis. Purity is defined as the area percentage of the main peak in relation to the total area of all integrated peaks in each chromatogram. Purity loss, also referred to herein as chemical degradation, after 14 days at 37° C. is determined as the difference in purity between the samples incubated at 5° C. and 37° C., divided by the purity of the sample after incubation for 14 days at 5° C.
RP-UPLC analysis is performed using a Waters BEH130 2.1 mm×150 mm, 1.7 μm column operated at 50° C. and a flow rate of 0.4 mL/min using a mobile phase system consisting of A: 0.05% TFA in MQ-water, and B: 0.05% TFA in Acetonitrile. UV-detection is performed at 215 nm. The typical gradient profile used for most of the samples is shown below.
For some individual derivatives eluting at substantially different retention times compared with the majority of derivatives, some adjustments to the gradient profile are made to better enable purity assessment comparison across samples.

T1 sequence (P43220 24-463): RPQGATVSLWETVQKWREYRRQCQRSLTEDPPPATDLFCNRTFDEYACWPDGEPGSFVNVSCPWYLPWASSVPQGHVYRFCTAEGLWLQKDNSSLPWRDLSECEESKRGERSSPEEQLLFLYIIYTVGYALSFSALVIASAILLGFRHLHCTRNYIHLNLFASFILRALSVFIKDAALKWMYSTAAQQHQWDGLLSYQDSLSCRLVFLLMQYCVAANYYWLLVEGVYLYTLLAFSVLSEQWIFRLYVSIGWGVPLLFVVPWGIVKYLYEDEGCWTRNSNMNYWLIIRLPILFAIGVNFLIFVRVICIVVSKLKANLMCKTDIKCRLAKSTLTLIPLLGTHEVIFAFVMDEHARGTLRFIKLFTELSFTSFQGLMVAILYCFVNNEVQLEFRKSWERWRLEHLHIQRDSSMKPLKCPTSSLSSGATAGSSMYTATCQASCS

SMILES | EC50 (human GLP-1 receptor) [pM] | Chemical stability: Chemical degradation over 14 days at 37° C. [1] [%]
CC[C@H](C)[C@H](NC(=O)[C@H](Cc1ccccc1)NC(=O)[C@H](CCC(=O)O)NC(=O)[C@H](CCCNC(=N)N)NC(=O)[C@H](C)NC(=O)[C@H](C)NC(=O)[C@H](CCC(N)=O)NC(=O)[C@H](CCC(=O)O)NC(=O)[C@H](CCC(=O)O)NC(=O)[C@H](CC(C)C)NC(=O)[C@H](Cc1ccc(O)cc1)NC(=O)[C@H](CCCCN)NC(=O)[C@H](CO)NC(=O)[C@@H](NC(=O)[C@H](CC(=O)O)NC(=O)[C@H](CO)NC(=O)[C@@H](NC(=O)[C@H](Cc1ccccc1)NC(=O)[C@@H](NC(=O)CNC(=O)[C@H](Cc1c[nH]cn1)NC(=O)C(C)(C)NC(=O)CCc1c[nH]cn1)[C@@H](C)O)[C@@H](C)O)C(C)C)C(=O)N[C@@H](C)C(=O)N[C@@H](Cc1c[nH]c2ccccc12)C(=O)N[C@@H](CC(C)C)C(=O)N[C@@H](CC(C)C)C(=O)N[C@@H](CCCCNC(=O)CNC(=O)[C@H](CO)NC(=O)[C@H](CCC(=O)O)NC(=O)CNC(=O)[C@H](CO)NC(=O)CC[C@H](NC(=O)CC[C@H](NC(=O)CCCCCCCCCCCCCCCCC(=O)O)C(=O)O)C(=O)O)C(=O)N[C@H](C(N)=O)[C@@H](C)O [Example 3, N^ε34-[2-[[(2S)-2-[[(2S)-4-carboxy-2-[[2-[[(2S)-2-[[(4S)-4-carboxy-4-[[(4S)-4-carboxy-4-(17-carboxyheptadecanoylamino)butanoyl]amino]butanoyl]amino]-3-hydroxypropanoyl]amino]acetyl]amino]butanoyl]amino]-3-hydroxypropanoyl]amino]acetyl]-[Imp7,Aib8,His9,Lys18,Glu22,Arg26,Leu33,Thr35]-GLP-1-(7-35)-peptide amide] (I: Desaminohistidyl-[Aib]HGTFTSDVSKYLEEQAAREFIAWLLKT-NH2 / II: {C18 diacid-γGlu-γGlu}-SGESG; amide I:27-II:C) | 5 | −0.3
CC[C@H](C)[C@H](NC(=O)[C@H](Cc1ccccc1)NC(=O)[C@H](CCC(=O)O)NC(=O)[C@H](CCCNC(=N)N)NC(=O)[C@H](C)NC(=O)[C@H](C)NC(=O)[C@H](CCC(N)=O)NC(=O)[C@H](CCC(=O)O)NC(=O)[C@H](CCC(=O)O)NC(=O)[C@H](CC(C)C)NC(=O)[C@H](Cc1ccc(O)cc1)NC(=O)[C@H](CCCCN)NC(=O)[C@H](CO)NC(=O)[C@@H](NC(=O)[C@H](CC(=O)O)NC(=O)[C@H](CO)NC(=O)[C@@H](NC(=O)[C@H](Cc1ccccc1)NC(=O)[C@@H](NC(=O)CNC(=O)[C@H](Cc1c[nH]cn1)NC(=O)C(C)(C)NC(=O)CCc1c[nH]cn1)[C@@H](C)O)[C@@H](C)O)C(C)C)C(=O)N[C@@H](C)C(=O)N[C@@H](Cc1c[nH]c2ccccc12)C(=O)N[C@@H](CC(C)C)C(=O)N[C@@H](CC(C)C)C(=O)N[C@@H](CCCCNC(=O)COCCOCCNC(=O)COCCOCCNC(=O)CC[C@H](NC(=O)CCCCCCCCCCCCCCCCC(=O)O)C(=O)O)C(=O)N[C@H](C(N)=O)[C@@H](C)O [Example 12, N^ε34-[2-[2-[2-[[2-[2-[2-[[(4S)-4-carboxy-4-(17-carboxyheptadecanoylamino)butanoyl]amino]ethoxy]ethoxy]acetyl]amino]ethoxy]ethoxy]acetyl]-[Imp7,Aib8,His9,Lys18,Glu22,Arg26,Leu33,Thr35]-GLP-1-(7-35)-peptide amide] (Desaminohistidyl-[Aib]HGTFTSDVSKYLEEQAAREFIAWLLK([AEEA-AEEA-γGlu-C18 diacid])T-NH2) | 6 | 4.4
CC[C@H](C)[C@H](NC(=O)[C@H](Cc1ccccc1)NC(=O)[C@H](CCC(=O)O)NC(=O)[C@H](CCCNC(=N)N)NC(=O)[C@H](C)NC(=O)[C@H](C)NC(=O)[C@H](CCCNC(=N)N)NC(=O)CNC(=O)[C@H](CCC(=O)O)NC(=O)[C@H](CC(C)C)NC(=O)[C@H](Cc1ccc(O)cc1)NC(=O)[C@H](CCCCN)NC(=O)[C@H](CO)NC(=O)[C@@H](NC(=O)[C@H](CC(=O)O)NC(=O)[C@H](CO)NC(=O)[C@@H](NC(=O)[C@H](Cc1ccccc1)NC(=O)[C@@H](NC(=O)CNC(=O)[C@H](Cc1c[nH]cn1)NC(=O)C1(NC(=O)CCc2c[nH]cn2)CCC1)[C@@H](C)O)[C@@H](C)O)C(C)C)C(=O)N[C@@H](C)C(=O)N[C@@H](Cc1c[nH]c2ccccc12)C(=O)N[C@@H](CC(C)C)C(=O)N[C@@H](CC(C)C)C(=O)N[C@@H](CCCCNC(=O)CNC(=O)[C@H](CO)NC(=O)[C@H](CCC(=O)O)NC(=O)CNC(=O)[C@H](CO)NC(=O)CC[C@H](NC(=O)CC[C@H](NC(=O)CCCCCCCCCCCCCCCCC(=O)O)C(=O)O)C(=O)O)C(=O)N[C@H](C(N)=O)[C@@H](C)O [Example 20, N^ε34-[2-[[(2S)-2-[[(2S)-4-carboxy-2-[[2-[[(2S)-2-[[(4S)-4-carboxy-4-[[(4S)-4-carboxy-4-(17-carboxyheptadecanoylamino)butanoyl]amino]butanoyl]amino]-3-hydroxypropanoyl]amino]acetyl]amino]butanoyl]amino]-3-hydroxypropanoyl]amino]acetyl]-[Imp7,Acb8,His9,Lys18,Arg23,Arg26,Leu33,Thr35]-GLP-1-(7-35)-peptide amide] (I: Desaminohistidyl-[Ac4c]HGTFTSDVSKYLEGRAAREFIAWLLKT-NH2 / II: {C18 diacid-γGlu-γGlu}-SGESG; amide I:27-II:C) | 12 | 0.4
CC[C@H](C)[C@H](NC(=O)[C@H](Cc1ccccc1)NC(=O)[C@H](CCC(=O)O)NC(=O)[C@H](CCCNC(=N)N)NC(=O)[C@H](C)NC(=O)[C@H](C)NC(=O)[C@H](CCCNC(=N)N)NC(=O)CNC(=O)[C@H](CCC(=O)O)NC(=O)[C@H](CC(C)C)NC(=O)[C@H](Cc1ccc(O)cc1)NC(=O)[C@H](CCCCN)NC(=O)[C@H](CO)NC(=O)[C@@H](NC(=O)[C@H](CC(=O)O)NC(=O)[C@H](CO)NC(=O)[C@@H](NC(=O)[C@H](Cc1ccccc1)NC(=O)[C@@H](NC(=O)CNC(=O)[C@H](Cc1c[nH]cn1)NC(=O)[C@H](C)NC(=O)CCc1c[nH]cn1)[C@@H](C)O)[C@@H](C)O)C(C)C)C(=O)N[C@@H](C)C(=O)N[C@@H](Cc1c[nH]c2ccccc12)C(=O)N[C@@H](CC(C)C)C(=O)N[C@@H](CC(C)C)C(=O)N[C@@H](CCCCNC(=O)COCCOCCNC(=O)COCCOCCNC(=O)CC[C@H](NC(=O)CC[C@H](NC(=O)CC[C@H](NC(=O)CCCCCCCCCCCCCCCCC(=O)O)C(=O)O)C(=O)O)C(=O)O)C(=O)N[C@H](C(N)=O)[C@@H](C)O [Example 10, N^ε34-[2-[2-[2-[[2-[2-[2-[[(4S)-4-carboxy-4-[[(4S)-4-carboxy-4-[[(4S)-4-carboxy-4-(17-carboxyheptadecanoylamino)butanoyl]amino]butanoyl]amino]butanoyl]amino]ethoxy]ethoxy]acetyl]amino]ethoxy]ethoxy]acetyl]-[Imp7,His9,Lys18,Arg23,Arg26,Leu33,Thr35]-GLP-1-(7-35)-peptide amide] (Desaminohistidyl-AHGTFTSDVSKYLEGRAAREFIAWLLK([AEEA-AEEA-γGlu-γGlu-γGlu-C18 diacid])T-NH2) | 8 | 2.0
